# Measurements as given in US8735387B2, “Oxazolopyrimidines as Edg-1 receptor agonists” (Sanofi, priority 2008, dated 2014).
# Target: T1, human Edg-1 receptor (Homo sapiens, UniProt P21453)
# T1 construct: expressed in transfected cells; membrane preparation
# Test: GTP-γ-S assay using human Edg-1 receptors (scintillation proximity assay, membrane preparation from CHO Flp-In cell line)
# Assay type: biochemical
# Settings: example compound at 10 μM; relative to 10 μM S1P; GTP-γ-S SPA, human Edg-1 membranes
# Summary of the method: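 Scintillation proximity GTP-γ-S binding assay measuring receptor activation. Membranes prepared from a CHO Flp-In line stably overexpressing N-terminally FLAG-tagged human Edg-1.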
# T1 sequence (P21453 whole entry): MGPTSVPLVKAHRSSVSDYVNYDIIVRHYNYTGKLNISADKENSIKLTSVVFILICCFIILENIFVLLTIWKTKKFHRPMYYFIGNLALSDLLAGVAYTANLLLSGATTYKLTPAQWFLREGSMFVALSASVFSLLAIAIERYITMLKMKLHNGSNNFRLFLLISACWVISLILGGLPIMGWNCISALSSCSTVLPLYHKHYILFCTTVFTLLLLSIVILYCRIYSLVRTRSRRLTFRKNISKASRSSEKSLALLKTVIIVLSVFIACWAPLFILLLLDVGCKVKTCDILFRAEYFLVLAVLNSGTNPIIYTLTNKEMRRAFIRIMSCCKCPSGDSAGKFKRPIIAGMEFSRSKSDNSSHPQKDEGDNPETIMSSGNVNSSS
row,Structure (SMILES),% Activation (Edg-1 receptor activation in percent of the activation by 10 μM S1P) [%]
1,CCOc1nc(Cc2ccc(Cl)cc2)nc2oc(-c3cc(C)c(OCC(=O)NCCCC(=O)O)c(C)c3)nc12 [Example 288],113
2,CCCOc1nc(Cc2ccc(Cl)cc2)nc2oc(-c3cc(C)c(OCCCN[C@@H](Cc4ccccc4)C(=O)O)c(C)c3)nc12 [Example 289],80
3,CCOc1nc(Cc2ccc(Cl)cc2)nc2oc(-c3cc(C)c(OCC(=O)NCCNS(C)(=O)=O)c(C)c3)nc12 [Example 290],114
4,CCOc1nc(Cc2ccc(Cl)cc2)nc2oc(-c3cc(C)c(OCC(O)CS(=O)(=O)c4ncn[nH]4)c(C)c3)nc12 (stereo not drawn) [Example 291],116
5,CCOc1nc(Cc2ccc(Cl)cc2)nc2oc(-c3cc(C)c(OCCC[S+]([O-])c4ncn[nH]4)c(C)c3)nc12 (stereo not drawn) [Example 292],86
6,CCOc1nc(Cc2ccc(Cl)cc2)nc2oc(-c3cc(C)c(OCC(O)CSc4ncn[nH]4)c(C)c3)nc12 (stereo not drawn) [Example 293],99
7,CCOc1nc(Cc2ccc(Cl)cc2)nc2oc(-c3cc(C)c(OCC(=O)NCC#N)c(C)c3)nc12 [Example 294],83
8,CCOc1nc(Cc2ccc(Cl)cc2)nc2oc(-c3cc(C)c(OCCCS(=O)(=O)c4ncn[nH]4)c(C)c3)nc12 [Example 295],100
9,CCOc1nc(Cc2ccc(Cl)cc2)nc2oc(-c3cc(C)c(OCCCSc4ncn[nH]4)c(C)c3)nc12 [Example 296],52
10,CCOc1nc(Cc2ccc(Cl)cc2)nc2oc(-c3cccc(OCC(=O)N[C@@H](CO)C(=O)O)c3)nc12 [Example 297],99
11,CCOc1nc(Cc2ccc(Cl)cc2)nc2oc(-c3cccc(OCC(=O)NCCC(=O)O)c3)nc12 [Example 298],92
12,CCOc1nc(Cc2ccc(Cl)cc2)nc2oc(-c3cc(C)c(OCC(=O)NCCCNS(C)(=O)=O)c(C)c3)nc12 [Example 299],94
13,CCOc1nc(Cc2ccc(Cl)cc2)nc2oc(-c3cc(C)c(OCC(O)CS(=O)(=O)c4nnc(C5CC5)[nH]4)c(C)c3)nc12 (stereo not drawn) [Example 300],89
14,CCOc1nc(Cc2ccc(Cl)cc2)nc2oc(-c3cc(C)c(OCC4(CO)COC4)c(C)c3)nc12 [Example 301],97
15,CCOc1nc(Cc2ccc(Cl)cc2)nc2oc(-c3cccc(O)c3)nc12 [Example 302],103
16,CCCOc1nc(CN2CC[C@@H](F)C2)nc2oc(-c3cccc(F)c3)nc12 [Example 303],104
17,CCCOc1nc(CN2CCCC(C(F)(F)F)C2)nc2oc(-c3cccc(F)c3)nc12 (stereo not drawn) [Example 304],102
18,CCCOc1nc(Cc2ccc(Cl)cc2)nc2oc(-c3cc(C)c(OCC(O)CNC(=O)c4ccco4)c(C)c3)nc12 (stereo not drawn) [Example 305],103
19,CCCOc1nc(Cc2ccc(Cl)cc2)nc2oc(-c3cc(C)c(OCC(=O)N4CCOCC4)c(C)c3)nc12 [Example 306],81
20,CCCOc1nc(Cc2ccc(Cl)cc2)nc2oc(-c3cc(C)c(OCC(=O)N4CCC[C@H]4C(=O)OC(C)(C)C)c(C)c3)nc12 [Example 307],10
21,CCCOc1nc(Cc2ccc(Cl)cc2)nc2oc(-c3cc(C)c(OCC(O)CNC(=O)C4(O)CC4)c(C)c3)nc12 (stereo not drawn) [Example 308],107
